From US20250250282A1, “NOVEL SEVEN-MEMBERED RING-FUSED COMPOUNDS” (PRISM Biolab Co., Ltd., priority 2022, published 2025)

Test system: CellSensor T-REx NICD CSL-bla HeLa cell line (Notch response element driving beta-lactamase reporter)
Assay: Notch assay (CSL-bla beta-lactamase reporter, DOX-inducible NICD)
Assay type: cell-based
Details: Homo sapiens; 10 μM compound; HeLa/T-REx NICD CSL-bla cells, doxycycline-induced, 16-20 hours incubation; blue/green emission ratio
Protocol: We used the CellSensor T-REx™ NICD CSL-bla HeLa cell line, which was engineered by lentiviral transduction of HeLa cells with a Notch response element driving beta-lactamase reporter gene expression (CSL-bla) along with DOX (doxycycline)-inducible NICD (Notch intracellular domain) constructs. Addition of DOX to these cells allows for regulated NICD transcription factor expression and subsequent beta-lactamase expression.
Specifically, the following protocol was used.
• 1. Plate Cells: 32 μL/well of HeLa/T-REx™ NICD CSL-bla cells at 10^3 cells/well complete medium into 384-well plate. • 2. Prepare 10× compounds in assay medium. • 3. Add 4 μL compounds or 1% DMSO in assay medium to the cells. • 4. Add 4 μL 10× Doxycycline in Assay Medium to the treated wells, and 4 μL Assay Medium to the Untreated and cell free control wells. • 5. Incubate the assay plate in a humidified 37° C./5% CO2 incubator for 16-20 hours. • 6. Preparation of 6× LiveBLAzer™-FRET B/G Substrate (CCF4-AM) Mixture according to the manual and cell loading should be done in the absence of direct strong lighting. • 7. Remove assay plate from the humidified 37° C./5% CO2 incubator. Add 8 μl of 6× Substrate Mixture from […] to each well. Cover the plate to protect it from light and evaporation. Incubate at room temperature for 4 hours. • 8. Reading an Assay Plate using the following filter selections:
• 9. Data analysis: Use the assay plate layout to identify the location of the Cell-free wells. These control wells are used for background subtraction. Determine the average emission from the Cell-free wells at both 460 nm (Average Blue Background) and 530 nm (Average Green Background). Subtract the Average Blue Background (data collected at 460 nm) from all of the blue emission data. Subtract the Average Green background (data collected at 530 nm) from all of the green emission data. Calculate the Blue/Green Emission Ratio for each well, by dividing the background-subtracted blue emission values by the background-subtracted green emission values.

Structure (SMILES)	inhibition at 10 µM [%]
CCCCN1CC2N(C[C@@H](CC(C)C)C1=O)C(=O)c1sccc1N2C(=O)NCc1cccc2ccccc12 (stereo partly drawn) [ID-24, (8R)-6-butyl-8-isobutyl-N-(naphthalen-1-ylmethyl)-7,11-dioxo-4a,5,6,7,8,9-hexahydrothieno[3′,2′:4,5]pyrimido[1,2-a][1,4]diazepine-4(11H)-carboxamide]	51.1
O=C1[C@H](Cc2ccc(O)cc2)CN2C(=O)CCN(C(=O)NCC3CCCCC3)C2CN1Cc1cccc2ccccc12 (stereo partly drawn) [ID-15, (7R)—N-(cyclohexylmethyl)-7-(4-hydroxybenzyl)-9-(naphthalen-1-ylmethyl)-4,8-dioxooctahydropyrimido[1,2-a][1,4]diazepine-1(2H)-carboxamide]	57.5
C[C@@H]1CN2C(=O)c3sccc3N(C(=O)NCCC(c3ccccc3)c3ccccc3)C2CN(Cc2ccc3ccccc3c2)C1=O (stereo partly drawn) [ID-29, (8R)—N-(3,3-diphenylpropyl)-8-methyl-6-(naphthalen-2-ylmethyl)-7,11-dioxo-4a,5,6,7,8,9-hexahydrothieno[3′,2′:4,5]pyrimido[1,2-a][1,4]diazepine-4(11H)-carboxamide]	56.7
CC(C)CCN1CC2N(C[C@@H](Cc3ccc(O)cc3)C1=O)C(=O)c1sccc1N2C(=O)NCc1cccc2ccccc12 (stereo partly drawn) [ID-26, (8R)-8-(4-hydroxybenzyl)-6-isopentyl-N-(naphthalen-1-ylmethyl)-7,11-dioxo-4a,5,6,7,8,9-hexahydrothieno[3′,2′:4,5]pyrimido[1,2-a][1,4]diazepine-4(11H)-carboxamide]	61.1
CC(C)[C@@H]1CN2C(=O)CCN(C(=O)NCCC(c3ccccc3)c3ccccc3)C2CN(CCc2ccccc2)C1=O (stereo partly drawn) [ID-09, (7R)—N-(3,3-diphenylpropyl)-7-isopropyl-4,8-dioxo-9-phenethyloctahydropyrimido[1,2-a][1,4]diazepine-1(2H)-carboxamide]	54.1
C[C@@H]1CN2C(=O)CCN(C(=O)NCc3cccc4ccccc34)C2CN(CC2CCCCC2)C1=O (stereo partly drawn) [ID-03, (7R)-9-(cyclohexylmethyl)-7-methyl-N-(naphthalen-1-ylmethyl)-4,8-dioxooctahydropyrimido[1,2-a][1,4]diazepine-1(2H)-carboxamide]	53.4
CC(C)CCN1CC2N(C[C@@H](Cc3ccc(O)cc3)C1=O)C(=O)CCN2C(=O)NCCC(c1ccccc1)c1ccccc1 (stereo partly drawn) [ID-05, (7R)—N-(3,3-diphenylpropyl)-7-(4-hydroxybenzyl)-9-isopentyl-4,8-dioxooctahydropyrimido[1,2-a][1,4]diazepine-1(2H)-carboxamide]	51.5
CC(C)[C@@H]1CN2C(=O)CCN(C(=O)NCc3ccccc3)C2CN(Cc2ccc3ccccc3c2)C1=O (stereo partly drawn) [ID-01, (7R)—N-benzyl-7-isopropyl-9-(naphthalen-2-ylmethyl)-4,8-dioxooctahydropyrimido[1,2-a][1,4]diazepine-1(2H)-carboxamide]	54.7
